Experimental data: PubChem BioAssay AID1996
≈ marks a conversion by molar mass, not a printed value.

conditions: buffer; pH 7.4; 200.0 µM

Row | Structure (SMILES) | solubility kinetic [µg/mL]
1 | COC(=O)c1sccc1NC(=O)CC1NCCNC1=O (stereo not given) | 42.1 (≈ 142 µM)
2 | O=C(Nc1cccc2c1CCCC2)c1ccccc1Cl | 1.8 (≈ 6.3 µM)
3 | O=C(NC1(C(F)(F)F)OCCO1)c1ccc(F)cc1 | 32.9 (≈ 118 µM)
4 | O=C(O)/C=C/C(=O)Nc1ccc(OC(F)F)cc1 | > 38.6
5 | CCOC(=O)C1CCN(C(=O)Nc2ccc(OC(F)(F)F)cc2)CC1 | 16.1 (≈ 44.7 µM)
6 | O=C1Cc2ccccc2C(c2ccc(Cl)cc2)N1 (stereo not given) | 30.4 (≈ 118 µM)
7 | Cc1nc2ccc(NC(=O)c3ccco3)cc2nc1C | > 40.1
8 | CCCc1cc(=O)[nH]c(SCC(=O)Nc2ccc(OC)c(S(=O)(=O)N3CCCCC3)c2)n1 | 13.8 (≈ 28.7 µM)
9 | COCCSc1ccccc1C(=O)N1CCc2ccccc2C1 | > 49.1
10 | CCn1c(=O)c2sccc2n(Cc2cccc(C)c2)c1=O | 9 (≈ 30 µM)
11 | COc1ccc(C(C)NC(=O)c2ccncc2)cc1 (stereo not given) | 36.2 (≈ 141 µM)
12 | COc1ccc(CN(C)C(=S)Nc2ccc(Cl)cc2)cc1 | 13.5 (≈ 42.1 µM)
13 | O=C(Nc1cccc(O)c1)C1CC(c2c(F)cccc2Cl)=NO1 (stereo not given) | 29.5 (≈ 88.1 µM)
14 | Cc1ccc(NC(=O)c2ccc(COc3ccccc3)o2)nc1 | 16 (≈ 51.9 µM)
15 | Cc1cc(NC(=O)CN2C(=O)NC(C)(c3ccc(Cl)cc3Cl)C2=O)no1 (stereo not given) | 7.4 (≈ 18.6 µM)
16 | CC1(C)C=C2C(=NN(c3ccccc3)C(N)=C2C#N)CO1 | > 42
17 | O=C(CNC(=O)c1ccc(Cl)cc1)c1ccccc1 | 6 (≈ 21.9 µM)
18 | Cc1ccc(Cl)cc1N1C(=O)CC(C)(C)CC1=O | 15.7 (≈ 59.1 µM)
19 | CC(C)CC(=O)N1CCN(Cc2ccccc2Cl)CC1 | 30.7 (≈ 104 µM)
20 | O=[N+]([O-])c1ccc(COc2cccc3cccnc23)cc1 | 2.4 (≈ 8.56 µM)
21 | Cc1ccc(S(=O)(=O)/N=C(/Nc2ccc([N+](=O)[O-])cc2[N+](=O)[O-])c2ccccc2)cc1 | 5.9 (≈ 13.4 µM)
22 | Cc1nc(SCC(=O)NC2CCCC2)c2c(C)c(C)sc2n1 | 0.5 (≈ 1.49 µM)
23 | CN=C(NC1CCCCC1)c1ccc([N+](=O)[O-])cc1 | > 39.2
24 | O=C(NCCCn1ccnc1)C1CCN(S(=O)(=O)c2cc([N+](=O)[O-])ccc2Cl)CC1 | > 68.4

Row | Structure (SMILES) | solubility kinetic [µg/mL]
25 | CCCn1c(=N)n(CC(O)COc2ccc(C)cc2)c2ccccc21.Cl (stereo not given) | > 56.4
26 | CC1Nc2ccc(C(=O)NC3CCCCC3)cc2NC1=O (stereo not given) | 19.2 (≈ 66.8 µM)
27 | Fc1ccccc1NC(=S)NCc1ccccc1 | 36.1 (≈ 139 µM)
28 | CC(=O)c1ccc(N2CCN(C(=S)NCc3ccco3)CC2)cc1 | 45.4 (≈ 132 µM)
29 | CCCn1c(NC(=O)c2ccc([N+](=O)[O-])o2)nc2ccccc21 | 10.4 (≈ 33.1 µM)
30 | Cl.OC(CNC1CCCC1)COc1ccc(F)cc1 (stereo not given) | 36.6
31 | Cc1ccc(NC(=S)NCc2ccc3c(c2)cc(C)n3C)c(C)c1 | 0.6 (≈ 1.78 µM)
32 | CCOc1ccc(C(=O)OC(C)CN2CCCCC2)cc1.Cl (stereo not given) | > 49.2
33 | O=C(Nc1ccc(NC(=O)c2ccccc2Cl)cc1)c1cccnc1 | 3 (≈ 8.53 µM)
34 | CC1CN(S(=O)(=O)c2ccc(C(=O)NC3CCCCC3)cc2)CC(C)O1 (stereo not given) | 45.8 (≈ 120 µM)
35 | Cc1nnc(NC(=O)C(C)Sc2nnc(-c3ccco3)n2C)s1 (stereo not given) | > 52.6
36 | COC(=O)c1sc(=S)n(Cc2ccccc2)c1C | 7.1 (≈ 25.4 µM)
37 | CC(CN)(NS(=O)(=O)c1ccccc1)c1ccccc1 (stereo not given) | > 43.6
38 | CC(SCc1ccccc1)C(=O)Nc1ccc(F)cc1 (stereo not given) | > 43.4
39 | Nc1ccc(-c2nc(-c3ccccc3)nc3ccccc23)cc1 | 0.5 (≈ 1.68 µM)
40 | O=C(Nc1nc2ccccc2s1)c1ccccc1 | 3.1 (≈ 12.2 µM)
41 | CCOc1ccc(NC(=O)c2nsc(Cl)c2Cl)cc1 | 1.3 (≈ 4.1 µM)
42 | O=c1c2c3c(sc2nc(NCCO)n1-c1ccccc1)CCCC3 | 6.8 (≈ 19.9 µM)
43 | Cc1cc(C)nc(SCC(N)=O)n1 | 28.5 (≈ 144 µM)
44 | COc1ccc(C(=O)O/N=C(\N)c2ccc(OC)c(OC)c2)cc1 | 9.3 (≈ 28.2 µM)
45 | CN(C)S(=O)(=O)c1cccc(NC(=O)NCCCl)c1 | > 45.9
46 | COc1ccc2[nH]c(=O)c(CN(C(=O)c3cccnc3)c3cccc(C)c3)cc2c1 | 3.9 (≈ 9.76 µM)
47 | COc1ccc(OC)c(CNC(=O)C2CCC(=O)N2C(C)C)c1 (stereo not given) | > 48.1
48 | COc1ccc(NC(=O)CC2CC3CCC2C3)cn1 (stereo not given) | 29.9 (≈ 115 µM)

Row | Structure (SMILES) | solubility kinetic [µg/mL]
49 | COc1ccc(CCN2C(=O)C(C)=C(C)C2=O)cc1OC | > 43.4
50 | CCCc1nc2oc3ccccc3c(=O)c2c(=O)n1-c1ccccc1 | 37.2 (≈ 112 µM)
51 | CS(=O)(=O)N(CC(=O)N1CCCCCC1)c1cccc(F)c1 | > 49.3
52 | O=C(O)c1ccc(CSc2nc3ccccc3[nH]2)cc1 | 39.2 (≈ 138 µM)
53 | O=C(O)Cn1c(=O)c2c(c3ccccc31)CCC2 | > 36.5
54 | O=C(CN1CCCC1)Nc1cc(C(F)(F)F)ccc1Cl | 18.1 (≈ 59 µM)
55 | Cc1ccc(SCC(=O)OCC(=O)NC2(C#N)CCCCC2)cc1 | 47.6 (≈ 137 µM)
56 | N#CC(C#N)=C1NC2(CCCCC2)Cc2ccccc21 | 0.8 (≈ 3.04 µM)
57 | Cc1ccc(NC(=O)CCNC(=O)c2ccc(Cl)cc2)nc1 | 16.8 (≈ 52.9 µM)
58 | CCNC(=O)N1CCN(C(=O)NCC)CC1 | 13.6 (≈ 59.6 µM)
59 | Cc1cc(C)c(C#N)c(Nc2cccc(C)c2C)n1 | 1 (≈ 3.98 µM)
60 | O=C(CCc1ccccc1)N/N=C/c1cccc(O)c1 | > 40.2
61 | Cc1cc(C)c2c(=O)[nH]c(SCC(=O)N3CCOCC3)nc2n1 | > 50.2
62 | CN(C)C(=O)Oc1ccnc2cc(Cl)ccc12 | > 37.6
63 | COc1cc([N+](=O)[O-])ccc1NC(=O)Nc1cccnc1 | 1 (≈ 3.47 µM)
64 | Nc1ccc2nc(SCC(=O)c3ccccc3)sc2c1 | 1.8 (≈ 5.99 µM)
65 | C=CCc1cccc2cc(C(=O)Nc3ccc(NC(C)=O)cc3)c(=O)oc12 | 1.7 (≈ 4.69 µM)
66 | CCC(=NCc1cccnc1)c1c(O)n(-c2ccc(C)cc2)c(=O)[nH]c1=O | 31.6 (≈ 86.7 µM)
67 | Oc1ccc(-c2csc(Nc3ccccn3)n2)cc1 | 5.3 (≈ 19.7 µM)
68 | CC1(C)Cc2nc3sc4c(NCCO)ncnc4c3cc2CS1 | > 52
69 | Cl.c1cncc(CNC2CCCC2)c1 | > 37.4
70 | Cc1ccc(N2CC(O)Cn3c2nc2c3c(=O)[nH]c(=O)n2C)cc1 (stereo not given) | 16.2 (≈ 49.5 µM)
71 | Cc1ccc(CNS(=O)(=O)c2ccc(C)s2)cc1 | > 42.2
72 | O=C1C2C3CCC(C3)C2C(=O)N1c1ccc2ccccc2c1 (stereo not given) | 5 (≈ 17.2 µM)

Row | Structure (SMILES) | solubility kinetic [µg/mL]
73 | CN(C)c1ccc(N=Cc2cccn2C)cc1 | > 34.1
74 | CCCCN1C(C)=CC(=C2C(=O)c3ccccc3C2=O)C=C1C | < 0.7
75 | CC(C)Oc1ccccc1Cn1c(=O)oc2ccccc21 | 9 (≈ 31.8 µM)
76 | Cc1c(O)ccc(C(=O)CN2CCN(c3ccccc3)CC2)c1O | 12 (≈ 36.8 µM)
77 | Cc1c2c(n3c(nc4ccccc43)c1C#N)N(CCCN(C)C)CC2 | > 50
78 | c1ccc2c(c1)OCC(CNCC1COc3ccccc3O1)O2 (stereo not given) | > 47
79 | COc1ccc(N(C(=O)c2ccncc2)S(=O)(=O)c2ccc(F)cc2)cc1 | 50.9 (≈ 132 µM)
80 | CCCCON1C(=O)c2cccc3cccc(c23)C1=O | 8.8 (≈ 32.7 µM)
81 | C#CC(C)(C)NC(=S)NC1CC2C=CC1C2 (stereo not given) | 28 (≈ 119 µM)
82 | COc1cccc(NC(=O)CN2C(=O)COc3ccc(C)cc32)c1 | 1.9 (≈ 5.82 µM)
83 | CNC(=S)NNC(=O)Cc1ccc(OC)cc1 | > 38
84 | COc1ccc(CCNC(=O)c2cc(Cl)nc3ccccc23)cc1 | 5.9 (≈ 17.3 µM)
85 | Cc1cc(C)c(S(=O)(=O)N2CCc3ccccc32)c(C)c1 | < 0.6
86 | C/C(=N\NC(=O)c1ccncc1)c1cccs1 | > 36.8
87 | O=C(NCCOc1ccc(Cl)cc1)c1ccco1 | 25.9 (≈ 97.5 µM)
88 | Cc1ccc(CNc2ccc3c(c2)ncn3C(C)C)cc1 | > 41.9
89 | COc1cc(OC)c(C(=O)Nc2cccnc2)cc1OC | > 43.2
90 | O=S1(=O)CC2SC(=S)N(Cc3ccccc3)C2C1 (stereo not given) | 1.8 (≈ 6.01 µM)
91 | Br.CC(=O)c1cccc(Nc2nc(-c3ccccc3)cs2)c1 | 2.1
92 | O=C1NCCn2ccc(=O)cc21 | 21.6 (≈ 132 µM)
93 | CN1CC(=O)Nc2ccc([N+](=O)[O-])cc2C1=O | > 35.3
94 | O=C(NCC1CC1)c1cc([N+](=O)[O-])cc([N+](=O)[O-])c1 | > 39.8
95 | Oc1c(CN2CCOCC2)ccc2ccccc12 | 16.9 (≈ 69.5 µM)
96 | Cc1cccc(N2CCN(CC(=O)NCc3ccccc3)CC2)c1C | 43.6 (≈ 129 µM)

Row | Structure (SMILES) | solubility kinetic [µg/mL]
97 | COC(=O)c1c(C)[nH]c(C(=O)OCC(=O)c2c(N)n(CC(C)C)c(=O)n(C)c2=O)c1C | 14 (≈ 32.2 µM)
98 | CN(C)CCOC(=O)NC12CC3CC(CC(C3)C1)C2.Cl | > 45.4
99 | CC(C)(C)S(=O)(=O)/C(C#N)=C/c1sccc1C1OCCO1 | 35.4 (≈ 108 µM)
100 | CC(C)CNC(C)C(=O)Nc1ccc(S(N)(=O)=O)cc1 (stereo not given) | > 44.9
101 | COC(=O)c1cc(OC)nc(OC)c1 | 3 (≈ 15.2 µM)
102 | O=C(Nc1cccc2cccnc12)c1ccc(Cl)cc1Cl | < 0.3
103 | COc1ccc(C(=O)COC(=O)[C@@H](NS(=O)(=O)c2ccccc2)C(C)C)cc1 | 7.8 (≈ 19.2 µM)
104 | CC(C)(C)S(=O)(=O)c1cnc(-c2cnccn2)nc1N | > 44
105 | CN1C(=O)c2cccc3c(S(=O)(=O)Nc4ccccc4F)ccc1c23 | 9.6 (≈ 26.9 µM)
106 | Cc1nc2ccccc2cc1C(=O)N(C)Cc1ccccc1 | 43 (≈ 148 µM)
107 | CCc1ccccc1NC(=O)c1ccc(OCc2c(C)noc2C)cc1 | 3.7 (≈ 10.6 µM)
108 | CCOC(=O)c1c(C)[nH]c(C)c1C(=O)COC(=O)/C=C/c1ccccc1[N+](=O)[O-] | 6 (≈ 15 µM)
109 | Cc1ccc(C)c(NC(=O)CN2C(=O)NC(CCc3ccccc3)C2=O)c1 (stereo not given) | 2.5 (≈ 6.84 µM)
110 | FC(F)(F)c1ccc(NCCc2ccccc2)nc1 | 3.7 (≈ 13.9 µM)
111 | CC(OC(=O)c1cccc([N+](=O)[O-])c1)C(=O)N1CCc2ccccc21 (stereo not given) | 3.7 (≈ 10.9 µM)
112 | CS(=O)(=O)NCCNc1ccc(C(F)(F)F)cc1[N+](=O)[O-] | 30.3 (≈ 92.6 µM)
113 | NC(=O)c1ccc[n+](CC(=O)c2ccc(Br)cc2)c1.[Br-] | > 60
114 | O=C(CN1C(=O)c2ccccc2C1=O)Oc1ccc(Cl)cc1 | 28 (≈ 88.7 µM)
115 | CCc1ccccc1NC(=O)c1sc2nc(C)cc(C)c2c1N | 0.5 (≈ 1.54 µM)
116 | O=C1NC2(CCCCCC2)C(=O)N1Cc1ccccc1 | > 40.9
117 | COc1ccccc1OCCn1c(SCC(N)=O)nc2ccccc21 | 45.4 (≈ 127 µM)
118 | Cc1nc(N2CCCCC2)sc1C=O | > 31.5
119 | Nc1nc2ccccc2[nH]1 | > 20
120 | Nc1nc(CCl)nc(N(c2ccccc2)c2ccccc2)n1 | 7.5 (≈ 24.1 µM)
